Experimental data as given in US8227616B2, “Cyanopyridine antibacterial agents and methods of use thereof” (Wisconsin Alumni Research Foundation, priority 2006, dated 2012).
In brackets after ≈: the same amount, converted by molar mass.

How the values were obtained:
[1] = tested on: B. subtilis subsp. spizizenii ATCC 6633; test: MIC determination, species selectivity; assay type: cell-based; conditions: Bacillus subtilis, ATCC6633; authentic sample, only trans isomers of chalcones; error reflects step size
Experimental: (§1) Each compound from Table 3 was tested for inhibitory activity at 2.5, 5, 7.5, 10, 15, 20, 25, and 30 μM in the susceptible overlaid strains: B. subtilis ATCC 6633, S. epidermidis ATCC 12228, and K. pneumoniae ATCC 4352. MIC assays were run in quadruplicate as described above (with shaking).

[2] = tested on: S. epidermidis ATCC 12228; test: MIC determination, species selectivity; assay type: cell-based; conditions: Staphylococcus epidermidis, ATCC12228; authentic sample, only trans isomers of chalcones; error reflects step size
Experimental: as §1

- MIC [1]: 8.8 ± 1.2 µM (≈ 3.17 µg/mL)
- MIC [2]: 3.8 ± 1.2 µM (≈ 1.37 µg/mL)
SMILES: O=C(/C=C/c1cc(C(F)(F)F)cc(C(F)(F)F)c1)c1cccc(O)c1 [Compound 4Bv, 3′-hydroxy-3,5-bis(trifluoromethyl)chalcone]
